# How the values were obtained:
# [1] = tested on: β-galactosidase in tumor sections; assay: IHC analysis of β-galactosidase staining in intraliver tumors after i.v. dosing of Lipid-Based Particles; format: in vivo, Scid female mice; conditions: intraliver tumor model, Scid mice, tail vein (i.v) injection
# Experimental: The animal studies were carried out in accordance with internal Institutional Animal Care and Use Committee (IACUC) guidelines at Abbott Laboratories. Scid female mice at 6 to 8 weeks of age were obtained from Charles River Laboratory and used for […] tumor models. Mouse livers were exposed by vertical incision on mouse abdomens and the tumor cells were directly injected into the livers. The incision was closed by suture and wound clips. All cell lines used for creating xenograft tumors were subjected to the IMPACT profile I test (18 agents) at the University of Missouri Research Animal Diagnostic and Investigative Laboratory, and all cell lines were found negative for the 18 infectious agents tested. Tumor cells were suspended in a 1:1 mixture of S-MEM (Invitrogen, Carlsbad, Calif.) and matrigel (BD Bioscience, San Jose, Calif.) and inoculated at 1×10E6 cells per animal. Treatments were started 3 4 weeks after tumor inoculation. Formulated or unformulated siRNAs were administrated via tail vein (i.v) injection. IHC was carried out as previously described [Li, L., et al., Evaluating hypoxia-inducible factor-1alpha as a cancer therapeutic target via inducible RNA interference in vivo. Cancer Res, 2005. 65(16): p. 7249-58]. Briefly, tumors were excised, cut into pieces of less than 3 mm in thickness and immediately fixed in buffered formalin solution with neutral pH (Sigma, St. Louis, Mo.). The formalin-fixed and paraffin-embedded tumor sections were then used for staining. The mouse anti-β-galactosidase mAb (Promega, Madison, Wis.) was used to detect β-galactosidase in tumor sections. […] IHC images were acquired using the Nikon TE2000 inverted microscope. The β-galactosidase staining was evaluated by 2 people independently based on the scoring system listed below. The average of the score was calculated for each tumor.
# [2] = RiboGreen assay of siRNA encapsulation efficiency, in vivo formulations of Lipid-Based Particles; format: physicochemical; conditions: lipid:siRNA 25:1
# Experimental: (§1) RNA concentration and encapsulation efficiency were determined using a Quant-iT® Ribogreen RNA reagent and kit available from Invitrogen. The siRNA was released from the Lipid-Based Particle using one of the following reagents: ethanol, Triton X-100, or phenol/chloroform. The siRNA concentration is quantified using fluorescent reading at 480 nm/520 nm.
# The lipid solution was prepared (10 mg/ml) by dissolving the lipid in 200 proof ethanol. The lipid mixture solution is prepared according to the above composition in Table 5.
# An siRNA (TetR_ODC—12, G.G.G.G.A.A.A.G.C.U.G.G.C.A.A.G.A.U.U.U.U SEQ ID NO: 1) (ThermoFisher) solution is prepared in a concentration of 10 mg/ml by dissolving 10 mg siRNA in 1 ml of DNAse/RNAse-free distilled water.
# (§2) A round bottom flask was submerged into a 65° C. water bath. Citrate buffer (37.5 ml) of pH 4.0 was pipetted into the flask. The solution was stirred by a magnetic stirring bar at a speed of 900 rpm. Both the pH 4.0 citrate buffer and the lipid solution were pre-warmed in the 65° C. water bath for about 3 minutes. A siRNA solution (0.5 ml) was pipetted into the pH 4.0 citrate buffer. The 12.5 ml lipid mixture solution was injected through a 27 gauge needle into the citrate buffer in about 30 seconds. The needle tip was inserted into the solution during the injection. The resulting solution was stirred for 5 minutes at a speed of 900 rpm. The flask was pulled up from the water bath and a 50 ml pH 7.4 PBS buffer was added into the flask. The final solution was further mixed at a speed of 900 rpm for 5 minutes. For the diafiltration process, a dialysis filter (Millipore, 100K, Cat#PXB100C50) was used to remove ethanol in the above solution. When the volume was reduced to 20 ml during the initial diafiltration, 20 ml of pH 7.4 PBS was added to the sample solution. The diafiltration was continued until the volume was reduced to 20 ml. The diafiltration process was repeated 4 times. The volume of the sample solution was reduced to about 12 ml and pH 7.4 PBS was added to make the final volume of 15 ml. The 15 ml solution was filtered sequentially through the 0.45 and 0.22 μm sterile PVDF membrane filters (Millipore) and immediately transferred into a sterile vial.
# [3] = RiboGreen assay of siRNA encapsulation efficiency, in vitro formulations of Lipid-Based Particles; format: physicochemical; conditions: in vitro formulation b: Cationic lipid/PEG-cholesterol/DSPC/Chol 45/10/15/30 wt %, lipid:siRNA 25:1
# Experimental: The mixing solution of cationic lipids, cholesterol, non-cationic lipids and PEG-lipids was prepared in ethanol (total concentration at 10 mg/mL). siSTABLE (purchased from ThermoFisher) (sense-5′ GGGGAAAGCUGGCAAGAUUUU-3′SEQ ID NO. 1, antisense-5′-AAUCUUGCCAGCUUUCCCCUU-3′ SEQ ID NO: 2) % stock solution was prepared in 10 mg/mL of solution by dissolving 10 mg siRNA in 1 mL of RNAse-free UltraPure Water. The calculated amount of siRNA solution was added to 1 mL of citrate buffer (pH 4.0, 20 mM), to provide an siRNA concentration of 0.2 mg/mL, and warmed to 60 C. The calculated amount of lipid solution was warmed to 60 C, transferred to a 0.5 mL syringe with 28½ gauge needle, and injected into the citrate buffer with stirring at 60 C. After 3 minutes, 3 mL of PBS solution at room temperature (pH 7.4) was added into the lipid mixture with stirring. The Lipid-Based Particle solution was cooled to room temperature.
# (§3) The siRNA concentrations were measured using Quanti-iT RiboGreen RNA reagent (Molecular Probes, (R11490)). Vesicle sizes were characterized by dynamic light scattering with a DynaPro™ Plate Reader (Wyatt Technology) in 96-well half-area UV plate (Coring) after diluting the formulation sample (20 μL) in phosphate buffered saline (80 μL) at a pH of about 7-8. A 1% agarose gel-based assay was used for analyzing nuclease degradation and protection. Encapsulation efficiency (EE) was calculated using data obtained from a RiboGreen assay.
# as §1
# [4] = Particle sizing assay (Zetasizer Nano ZS), in vivo formulations; format: physicochemical; conditions: lipid:siRNA 25:1
# Experimental: as §2
# For measurements of particle sizes and size distributions (PDI), lipid-based particles were prepared as described above. The particle solution (60 μL) was pipetted into a disposable cuvette (UVette, Eppendorf, cat#952010051) and measured in the “General Purpose” mode. Attenuator and position were optimized by the device. Measurements were performed using a Zetasizer Nano ZS (Malvern Instruments) equipped with a 4 mW He—Ne laser at a wavelength of 633 nm at 25° C. Scattered light was detected at a 173° backward scattering angle. The viscosity and refractive index of water at 25° C. was used for data analysis with the Dispersion Technology Software 5.00 (Malvern Instruments).
# [5] = Particle sizing by dynamic light scattering (DynaPro plate reader), in vitro formulations; format: physicochemical; conditions: in vitro formulation b: Cationic lipid/PEG-cholesterol/DSPC/Chol 45/10/15/30 wt %, lipid:siRNA 25:1
# Experimental: as §3
# Particle sizes and size distributions (PDI) were characterized by using dynamic light scattering (DLS). A DLS plate reader (Dynapro™, Wyatt Technology) was used for the DLS measurement. This DLS plate reader uses an 830 nm laser and the scattering angle is 158°. It also can control temperature from 4° C. to 70° C. A 96-well format was employed for the samples.
# Samples for DLS analysis were prepared by mixing 20 μL of each sample stock solution with 80 μL PBS directly in the 96-well plate (#3697, Corning). Sample mixing was accomplished using a microplate shaker (Orbis, Mikura Ltd.). Plates were read at 20° C. with an acquisition time of 50 seconds for each sample, and data was analyzed with Wyatt Technology's Dynamics V6 software. To rule out potential multiple scattering artifacts, a second plate at 4-fold reduced sample concentrations was independently prepared by mixing 5 μL stock solutions with 95 μL PBS. Under our experimental conditions the results at the two concentrations were very similar, and the final reported result for each sample represents the average of values obtained from the two plates.
# [6] = in vivo formulation A: Cationic lipid/Example 73/DSPC/Chol 45/10/15/30 wt %
# [7] = in vivo formulation I: Cationic lipid/PEG-DPPE/DSPC/Chol 45/10/15/30 wt %
# [8] = in vivo formulation J: Cationic lipid/PEG-DSPE/DSPC/Chol 45/10/15/30 wt %
# [9] = in vivo formulation L: Cationic lipid/PEG-DPG/DSPC/Chol 45/10/15/30 wt %
# [10] = in vivo formulation C: Cationic lipid/Pal-PEG-Cera/DSPC/Chol 45/10/15/30 wt %
compound,measurement,setting,value
C[C@H]1c2cccc(O)c2C(=O)C2=C(O)[C@]3(O)C(=O)C(C(N)=O)=C(O)[C@@H](N(C)C)[C@@H]3[C@@H](O)[C@@H]21 [Doxycycline],In vivo response: β-galactosidase IHC staining score,[1]; column 1,+++ (there was 80% of the section with strong straining)
same,In vivo response: β-galactosidase IHC staining score,[1]; column 2,+++ (there was 80% of the section with strong straining)
same,In vivo response: β-galactosidase IHC staining score,[1]; column 3,+++ (there was 80% of the section with strong straining)
same,In vivo response: β-galactosidase IHC staining score,[1]; column 4,+++ (there was 80% of the section with strong straining)
same,In vivo response: β-galactosidase IHC staining score,[1]; column 5,+++ (there was 80% of the section with strong straining)
same,In vivo response: β-galactosidase IHC staining score,[1]; column 6,+++ (there was 80% of the section with strong straining)
"CCCCC/C=C\C/C=C\CCCCCCCCOCC(CCN(C)CCN(C)C)OCCCCCCCC/C=C\C/C=C\CCCCC (centres unmarked) [Example 9, N-{3,4-bis[(9Z,12Z)-octadeca-9,12-dienyloxy]butyl}-N,N′,N′-trimethylethane-1,2-diamine]",% Encapsulation Efficiency,[2]; [6],87.5%
same,% Encapsulation Efficiency,[2]; [7],98%
same,% Encapsulation Efficiency,[2]; [8],98%
same,% Encapsulation Efficiency,[2]; [9],98%
same,% Encapsulation Efficiency,[3],88.3%
same,Size,[4]; [6],160 nm
same,Size distribution (PDI),[4]; [6],(0.19)
same,Size,[4]; [7],93.4 nm
same,Size distribution (PDI),[4]; [7],(0.069)
same,Size,[4]; [8],98.1 nm
same,Size distribution (PDI),[4]; [8],(0.078)
same,Size,[4]; [9],98.7 nm
same,Size distribution (PDI),[4]; [9],(0.056)
same,Size,[5],105.8 nm
"CCCCC/C=C\C/C=C\CCCCCCCCOCC(CCN(C)CCOC)OCCCCCCCC/C=C\C/C=C\CCCCC (centres unmarked) [Example 7, N-(2-methoxyethyl)-N-methyl-3,4-bis[(9Z,12Z)-octadeca-9,12-dienyloxy]butan-1-amine]",% Encapsulation Efficiency,[2]; [6],74%
same,% Encapsulation Efficiency,[3],96.9%
same,Size,[4]; [6],140 nm
same,Size distribution (PDI),[4]; [6],(0.15)
same,Size,[5],123.2 nm
"CCCCC/C=C\C/C=C\CCCCCCCCOCC(CCN1CCC(N(C)C)C1)OCCCCCCCC/C=C\C/C=C\CCCCC (centres unmarked) [Example 17, 1-{3,4-bis[(9Z,12Z)-octadeca-9,12-dienyloxy]butyl}-N,N-dimethylpyrrolidin-3-amine]",% Encapsulation Efficiency,[2]; [10],97%
same,% Encapsulation Efficiency,[3],86.2%
same,Size,[4]; [6],149 nm
same,Size distribution (PDI),[4]; [6],(0.21)
same,Size,[4]; [10],101 nm
same,Size distribution (PDI),[4]; [10],(0.154)
same,Size,[5],114.4 nm
